Laboratory results reported in patent publication US9000179B2, “Inhibitors of proliferation and activation of signal transducer and activator of transcription (STATs)” (Board of Regents, The University of Texas System, priority 2008, dated 2015).

Key:
Type in all cases: cell-based
[1] = tested on: Colo357FG pancreatic cancer cell line; experiment: Antiproliferative activity, MTT cell viability; conditions: COLO 357/FG
Experimental: The antiproliferative activity of the Compound of Example 1 and Example 7 have been shown in a Colo357FG pancreatic cancer cell line as follows:
(§1) A variety of cell types were seeded at a density of 50,000 cells/100 μl per well onto 96-well plates and cultured for 24-48 h in DMEM medium until they reached confluency. At confluency, 25 μl of fresh media containing WP1220 at various concentrations (0 to 100 μM) was added to the wells and incubated for 72 h at 37° C. The complex was removed, 100 μl of fresh medium was added and the cells were incubated overnight. Medium was removed and fresh medium (100 μl) was added to each well along with (20 μl) MTT solution (5 mg/ml in PBS) before incubating the cells for a further 4 h at 37° C. The reaction product was solubilised with sodium dodecyl sulfate (100 μl, 10%, w/v) in 0.01 N HCl overnight before quantifying the product using a microplate reader at 590 nm and comparing with control cells. The experiment was carried out in triplicate (n=3).

STAT3 = experiment: Western blot, inhibition of STAT3 phosphorylation in Colo357FG tumor cell line; conditions: FIG. 1
Experimental: (§2) Using phospho-tyrosine STAT3 (Y705), phospho-tyrosine Jak2 (Y1007/1008), total STAT3, total Jak2, Bcl-xL, actin (Cell Signaling Technology, Danvers, Mass.), and survivin (R&D Systems, Minneapolis, Minn.) antibodies, western blots were performed using the following methods. Briefly, (1) Samples were prepared from cells that were homogenized in a buffer protecting the protein of interest from degradation; (2) The sample was then separated using SDS-PAGE (10-15 μg protein/well) and then transferred to a membrane for detection; and (3) The membrane was incubated with a generic protein (milk proteins) to bind to any remaining sites on the membrane. A primary antibody was then added to the solution which is able to bind to its specific protein; (4) A secondary antibody-enzyme conjugate, which recognizes the primary antibody was then added to find locations where the primary antibody has bound.

U87 brain tumor = experiment: Cell survival of U87 brain tumor (MTT); conditions: U87, FIG. 2
Experimental: as §1

[2] = tested on: SCOVE3 ovarian cancer cell; experiment: SCOVE3 ovarian cancer cell growth (MTT); conditions: SCOVE3, FIG. 3
Experimental: as §1

STAT-3 = experiment: Western blot, STAT-3 phosphorylation in D54 brain tumor cell lines; conditions: FIG. 4
Experimental: as §2

IC50 [1] [µM]	Compound	cell survival of the U87 brain tumor (U87 brain tumor)	inhibition of SCOVE3 ovarian cancer cell growth [2]	further results
3.2	C[C@H](NC(=O)/C(C#N)=C/C=C/c1cccc(Br)n1)c1ccccc1 [Example 1, (2E,4E)-5-(6-bromopyridin-2-yl)-2-cyano-N-[(1S)-1-phenylethyl]penta-2,4-dienamide]	–	–	inhibition of STAT3 phosphorylation (STAT3): inhibition of STAT3 phosphorylation
–	C[C@H](NC(=O)/C(C#N)=C/C=C/c1cccc(Cl)n1)c1ccccc1 [Example 2, (2E,4E)-5-(6-chloropyridin-2-yl)-2-cyano-N-[(1S)-1-phenylethyl]penta-2,4-dienamide]	lack of cell survival	inhibition of the SCOVE3 ovarian cancer cell growth	–
–	N#C/C(=C\C=C\c1cccc(Br)n1)C(=O)NCc1ccccc1 [Example 4, (2E,4E)-N-benzyl-5-(6-bromopyridin-2-yl)-2-cyanopenta-2,4-dienamide]	lack of cell survival	inhibition of the SCOVE3 ovarian cancer cell growth	–
5.4	N#C/C(=C\C=C\c1cccc(Br)n1)C(=O)N[C@H](c1ccccc1)C1CC1 [Example 7, (2E,4E)-5-(6-bromopyridin-2-yl)-2-cyano-N-[(S)-cyclopropyl(phenyl)methyl]penta-2,4-dienamide]	–	–	–
–	CCC[C@H](NC(=O)/C(C#N)=C/C=C/c1cccc(Br)n1)c1ccccc1 [Example 9, (2E,4E)-5-(6-bromopyridin-2-yl)-2-cyano-N-[(1S)-1-phenylbutyl]penta-2,4-dienamide]	–	–	inhibition of IL-2 phosphorylation of STAT-3 (STAT-3): constitutively inhibiting the IL-2 phosphorylation of STAT-3
